Laboratory results: patent US6737383B1, “Herbicidal oxadiazolidines” (priority 1999, dated 2004)

Legend:
crabgrass = test: Test B pre/postemergence crabgrass; format: in vivo, Digitaria sanguinalis
Summary of the method: (§1)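 Herbicidal effect was estimated by eye on a ten-point control scale after plants spent twelve to sixteen days in a greenhouse following soil or foliar treatment. Foliar sprays targeted plants at one to four leaves; all doses were formulated in a non-phytotoxic solvent with surfactant.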

cocklebur = test: Test B pre/postemergence cocklebur; format: in vivo, Xanthium strumarium
Summary of the method: as §1

sugar beet = test: Test B pre/postemergence sugar beet; format: in vivo, Beta vulgaris
Summary of the method: as §1

wheat = test: Test B pre/postemergence wheat; format: in vivo, Triticum aestivum
Summary of the method: as §1

velvetleaf = test: Test B pre/postemergence velvetleaf; format: in vivo, Abutilon theophrasti
Summary of the method: as §1

bedstraw = test: Test B pre/postemergence bedstraw; format: in vivo, Galium aparine
Summary of the method: as §1

rice = test: Test B flood test rice; format: in vivo, Oryza sativa
Summary of the method: (§2)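 Flood test on plants grown to the 2-leaf stage; treated plants kept in greenhouse twelve to sixteen days, then visually rated against controls on a 0 (no effect) to 10 (complete control) scale.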

morningglory = test: Test B pre/postemergence morningglory; format: in vivo, Ipomoea hederacea
Summary of the method: as §1

giant foxtail = test: Test B pre/postemergence giant foxtail; format: in vivo, Setaria faberii
Summary of the method: as §1

duck salad = test: Test B flood test duck salad; format: in vivo, Heteranthera limosa
Summary of the method: as §2

pigweed = test: Test B pre/postemergence pigweed; format: in vivo, Amaranthus retroflexus
Summary of the method: as §1

wild oat = test: Test B pre/postemergence wild oat; format: in vivo, Avena fatua
Summary of the method: as §1

smallflower flatsedge = test: Test B flood test smallflower flatsedge; format: in vivo, Cyperus difformis
Summary of the method: as §2

purple nutsedge = test: Test B pre/postemergence purple nutsedge; format: in vivo, Cyperus rotundus; conditions: Postemergence
Summary of the method: as §1

rape = test: Test B pre/postemergence rape; format: in vivo, Brassica napus
Summary of the method: as §1

bamyardgrass = test: Test B flood test barnyardgrass; format: in vivo, Echinochloa crus-galli
Summary of the method: as §2

blackgrass = test: Test B pre/postemergence blackgrass; format: in vivo, Alopecurus myosuroides
Summary of the method: as §1

soybean = test: Test B pre/postemergence soybean; format: in vivo, Glycine max
Summary of the method: as §1

corn = test: Test B pre/postemergence corn; format: in vivo, Zea mays
Summary of the method: as §1

surinam grass = test: Test B pre/postemergence surinam grass; format: in vivo, Brachiaria decumbens
Summary of the method: as §1

[1] = Preemergence, Rate 62 g/ha, scale of 0 to 10 where 0 is no effect and 10 is complete control
[2] = Preemergence, Rate 250 g/ha, scale of 0 to 10 where 0 is no effect and 10 is complete control
[3] = Preemergence, Rate 500 g/ha, scale of 0 to 10 where 0 is no effect and 10 is complete control
[4] = Rate 125 g/ha, Preemergence, scale of 0 to 10 where 0 is no effect and 10 is complete control
[5] = Rate 500 g/ha, Postemergence, scale 0 to 10, 0 no effect, 10 complete control
[6] = Rate 62 g/ha, Postemergence, scale of 0 to 10 where 0 is no effect and 10 is complete control
[7] = Rate 125 g/ha, Postemergence, scale 0 to 10
[8] = Rate 62 g/ha, headed Pre-emergence (flood test species), scale 0 to 10 (0 no effect, 10 complete control)
[9] = Rate 125 g/ha, Pre-emergence, flood test species, scale 0 to 10 where 0 is no effect and 10 is complete control
[10] = Rate 250 g/ha, Pre-emergence, flood-test species, scale 0 to 10, 0 is no effect, 10 is complete control
[11] = Rate 500 g/ha, Pre-emergence, flood test species, scale 0 to 10 (0 no effect, 10 complete control)

COCCOCn1c(=O)on(C(=O)N(c2ccc(F)cc2)C(C)C)c1=O [Compound 258]
Crabgrass plant response rating (crabgrass; [1]): 3 | Crabgrass plant response rating (crabgrass; [2]): 9 | Plant response rating, Crabgrass (crabgrass; [3]): 10 | Crabgrass plant response rating (crabgrass; [4]): 7 | Plant response rating (0 to 10; 0 is no effect, 10 is complete control), Crabgrass (crabgrass; Rate 250 g/ha, Postemergence): 2 | Crabgrass plant response rating (crabgrass; [5]): 5 | Cocklebur plant response rating (cocklebur; [1]): 0 | Cocklebur plant response rating (cocklebur; [2]): 0 | Plant response rating, Cocklebur (cocklebur; [3]): 0 | Cocklebur plant response rating (cocklebur; [6]): 0 | Cocklebur plant response rating (cocklebur; [7]): 0 | Cocklebur plant response rating (cocklebur; [4]): 0 | Plant response rating (0 to 10; 0 is no effect, 10 is complete control), Cocklebur (cocklebur; Rate 250 g/ha, Postemergence): 0 | Cocklebur plant response rating (cocklebur; [5]): 1 | Sugarbeets plant response rating (sugar beet; [1]): 0 | Sugarbeets plant response rating (sugar beet; [2]): 5 | Plant response rating, Sugarbeets (sugar beet; [3]): 7 | Sugarbeets plant response rating (sugar beet; [4]): 2 | Sugarbeets plant response rating (sugar beet; [5]): 2 | Wheat plant response rating (wheat; [1]): 0 | Wheat plant response rating (wheat; [2]): 4 | Plant response rating, Wheat (wheat; [3]): 7 | Wheat plant response rating (wheat; [4]): 4 | Wheat plant response rating (wheat; [5]): 6 | Velvetleaf plant response rating (velvetleaf; [1]): 2 | Velvetleaf plant response rating (velvetleaf; [2]): 5 | Plant response rating, Velvetleaf (velvetleaf; [3]): 7 | Velvetleaf plant response rating (velvetleaf; [4]): 5 | Velvetleaf plant response rating (velvetleaf; [5]): 0 | Bedstraw plant response rating (bedstraw; [1]): 0 | Bedstraw plant response rating (bedstraw; [2]): 3 | Plant response rating, Bedstraw (bedstraw; [3]): 10 | Bedstraw plant response rating (bedstraw; [6]): 2 | Bedstraw plant response rating (bedstraw; [7]): 4 | Bedstraw plant response rating (bedstraw; [4]): 3 | Plant response rating (0 to 10; 0 is no effect, 10 is complete control), Bedstraw (bedstraw; Rate 250 g/ha, Postemergence): 7 | Bedstraw plant response rating (bedstraw; [5]): 8 | Rice plant response rating (rice; [8]): 0 | Rice plant response rating (rice; [9]): 0 | Rice plant response rating (rice; [10]): 0 | Rice plant response rating (rice; [11]): 0 | Morningglory plant response rating (morningglory; [1]): 0 | Morningglory plant response rating (morningglory; [2]): 0 | Plant response rating, Morningglory (morningglory; [3]): 0 | Morningglory plant response rating (morningglory; [4]): 0 | Plant response rating (0 to 10; 0 is no effect, 10 is complete control), Morningglory (morningglory; Rate 250 g/ha, Postemergence): 7 | Morningglory plant response rating (morningglory; [5]): 10 | Giant foxtail plant response rating (giant foxtail; [1]): 8 | Giant foxtail plant response rating (giant foxtail; [2]): 10 | Plant response rating, Giant foxtail (giant foxtail; [3]): 10 | Giant foxtail plant response rating (giant foxtail; [4]): 9 | Plant response rating (0 to 10; 0 is no effect, 10 is complete control), Giant foxtail (giant foxtail; Rate 250 g/ha, Postemergence): 4 | Giant foxtail plant response rating (giant foxtail; [5]): 7 | Ducksalad plant response rating (duck salad; [8]): 0 | Ducksalad plant response rating (duck salad; [9]): 0 | Ducksalad plant response rating (duck salad; [10]): 0 | Ducksalad plant response rating (duck salad; [11]): 0 | Redroot pigweed plant response rating (pigweed; [1]): 0 | Redroot pigweed plant response rating (pigweed; [2]): 7 | Plant response rating, Redroot pigweed (pigweed; [3]): 10 | Redroot pigweed plant response rating (pigweed; [4]): 2 | Plant response rating (0 to 10; 0 is no effect, 10 is complete control), Redroot pigweed (pigweed; Rate 250 g/ha, Postemergence): 2 | Redroot pigweed plant response rating (pigweed; [5]): 3 | Wild oats plant response rating (wild oat; [1]): 2 | Wild oats plant response rating (wild oat; [2]): 5 | Plant response rating, Wild oats (wild oat; [3]): 6 | Wild oats plant response rating (wild oat; [4]): 4 | Wild oats plant response rating (wild oat; [5]): 3 | S. Flatsedge plant response rating (smallflower flatsedge; [8]): 0 | S. Flatsedge plant response rating (smallflower flatsedge; [9]): 0 | S. Flatsedge plant response rating (smallflower flatsedge; [10]): 0 | S. Flatsedge plant response rating (smallflower flatsedge; [11]): 0 | Plant response rating (0 to 10; 0 is no effect, 10 is complete control), Nutsedge (purple nutsedge; Rate 250 g/ha): 0 | Nutsedge plant response rating (purple nutsedge; Rate 500 g/ha, scale 0 to 10, 0 no effect, 10 complete control): 0 | Rape plant response rating (rape; [1]): 0 | Rape plant response rating (rape; [2]): 5 | Plant response rating, Rape (rape; [3]): 7 | Rape plant response rating (rape; [4]): 1 | Plant response rating (0 to 10; 0 is no effect, 10 is complete control), Rape (rape; Rate 250 g/ha, Postemergence): 0 | Rape plant response rating (rape; [5]): 3 | Barnyardgrass plant response rating (bamyardgrass; [8]): 0 | Barnyardgrass plant response rating (bamyardgrass; [9]): 0 | Barnyardgrass plant response rating (bamyardgrass; [10]): 0 | Barnyardgrass plant response rating (bamyardgrass; [11]): 0 | Blackgrass plant response rating (blackgrass; [1]): 6 | Blackgrass plant response rating (blackgrass; [2]): 8 | Plant response rating, Blackgrass (blackgrass; [3]): 8 | Blackgrass plant response rating (blackgrass; [6]): 1 | Blackgrass plant response rating (blackgrass; [7]): 5 | Blackgrass plant response rating (blackgrass; [4]): 8 | Plant response rating (0 to 10; 0 is no effect, 10 is complete control), Blackgrass (blackgrass; Rate 250 g/ha, Postemergence): 7 | Blackgrass plant response rating (blackgrass; [5]): 7 | Soybean plant response rating (soybean; [1]): 0 | Soybean plant response rating (soybean; [2]): 2 | Plant response rating, Soybean (soybean; [3]): 3 | Soybean plant response rating (soybean; [4]): 0 | Soybean plant response rating (soybean; [5]): 6 | Corn plant response rating (corn; [1]): 0 | Corn plant response rating (corn; [2]): 3 | Plant response rating, Corn (corn; [3]): 5 | Corn plant response rating (corn; [6]): 0 | Corn plant response rating (corn; [7]): 0 | Corn plant response rating (corn; [4]): 2 | Plant response rating (0 to 10; 0 is no effect, 10 is complete control), Corn (corn; Rate 250 g/ha, Postemergence): 0 | Corn plant response rating (corn; [5]): 0 | B. signalgrass plant response rating (surinam grass; [1]): 0 | B. signalgrass plant response rating (surinam grass; [2]): 7 | Plant response rating, B. signalgrass (surinam grass; [3]): 8 | B. signalgrass plant response rating (surinam grass; [6]): 0 | B. signalgrass plant response rating (surinam grass; Rate 125 g/ha, Postemergence, scale 0 (no effect) to 10 (complete control)): 0 | B. signalgrass plant response rating (surinam grass; [4]): 4 | Plant response rating (0 to 10; 0 is no effect, 10 is complete control), B. signalgrass (surinam grass; Rate 250 g/ha, Postemergence): 4 | B. signalgrass plant response rating (surinam grass; [5]): 8
